Measured values: ChEMBL document CHEMBL1145565, “Synthesis, biological evaluation and radiochemical labeling of a dansylhydrazone derivative as a potential imaging agent for apoptosis” (2008)
The source made the active and inactive calls. The rule behind the calls is not given here.

What was measured:
[1] = tested on: MCF7; test: Effect on drug uptake in cytoplasm of paclitaxel-treated human MCF7 apoptotic cells; type: functional, cell-based
[2] = tested on: K562; test: Effect on drug-uptake in imatinib-induced human K562 apoptotic cells; type: functional, cell-based
[3] = tested on: HT-29; test: Effect on drug-uptake in imatinib-induced human HT29 apoptotic cells; type: functional, cell-based
[4] = tested on: MCF7; test: Induction of apoptosis in human MCF7 cells assessed as morphology at 50 nM after 16 hrs; type: functional

SMILES	Activity [1]	Activity [2]	Activity [3]	Activity [4]
CN(C)c1cccc2c(S(=O)(=O)N/N=C\c3ccc(F)cc3)cccc12	Active			
CN(C)c1cccc2c(S(=O)(=O)N/N=C/c3ccc([N+](=O)[O-])cc3)cccc12		Active	Active	
CC(=O)O[C@H]1C(=O)[C@@]2(C)[C@H]([C@H](OC(=O)c3ccccc3)[C@]3(O)C[C@H](OC(=O)[C@H](O)[C@@H](NC(=O)c4ccccc4)c4ccccc4)C(C)=C1C3(C)C)[C@]1(OC(C)=O)CO[C@@H]1C[C@@H]2O [PACLITAXEL]				30%
CN(C)c1ccc(/C=N/NS(=O)(=O)c2cccc3c(N(C)C)cccc23)cc1		Active	Active	
Cc1cc(=O)cc2c3c1[C@@H]1O[C@H]4[C@@H]5OC(=O)[C@](CC2)([C@@H]4C)[C@H]3[C@@H]51		Active	Active	
CN(C)c1cccc2c(S(=O)(=O)N/N=C/c3ccc(I)cc3)cccc12		Active	Active	
